# Where a name gives a salt, the structure may show the parent alone. Read-outs that look alike come from different tables or passages of the source.
# Tests used:
# vagotomized rats = test: heart rate lowering effect on vagotomized rats; type: in vivo; details: Rattus norvegicus, iv, 0.5 h, read-out: D50 (dose which lowers the heart rate by 50 beats/min.)
# Method: were tested as follows with regard to their heart rate lowering effect on vagotomized rats:
# The animals were vagotomized and received a tracheal cannula; a polyethylene catheter was placed into the jugular vein. For measuring the ECG, needle electrodes were clamped to the extremities. During the test the body temperature of the animals was kept constant (34° C.).
# After balancing out a constant starting heart rate (determined by counting the heart beats from the ECG), the test compound was intravenously administered to the animal. 30 minutes later the type was measured again.
# Each compound was tested at 3 dosages administered to each of 6 animals; only one compound and dose per animal.
# The average of the 6 single values per dose (Δ heart rate in beats/min.) was determined, and the dose activity curves were prepared, from which the D50 (dose which lowers the heart rate by 50 beats/min.) was determined:
# [1] = acute toxicity in mice after administration per os (Litchfield and Wilcoxon); details: mouse, in vivo, po, mice of both sexes, deaths within 14 days
# Method: The acute toxicity was determined in mice of both sexes with an average body weight of 20 gm after administration per os. From the percentage of the animals which died within 14 days after the administration of various doses, the LD50 was determined according to the method of Litchfield and Wilcoxon (J. Pharmacol. exp. Ther. 96, 99 (1949): […]
# [2] = system: patients with angina pectoris; test: exercise test on bicycle ergometer in patients with angina pectoris, crossover single-blind against placebo (antianginal activity); type: in vivo
# Method: The antianginal activity of
# was determined in patients with angina pectoris as follows:
# 11 Patients with clinical and electrocardiographic symptoms of coronary insufficiency were selected for a crossover comparative single-blind study of compound A against placebo. Only those patients were allocated to one of the 2 treatments who complained of precordial pain at the same workload on 3 different days during the run-in period. In order to avoid carry-over effects the sequence of treatment was A placebo in every patient. 30 minutes after the injection of the test substance the patients were exercised on a bicycle ergometer. They started with a workload of 25 watts, which was increased every 3 minutes by 25 watts until the onset of pain. The heart rate and the blood pressure were registered every minute. The heart rate was determined by means of an ECG; the measurement of the blood pressure was carried out according to Riva-Rocci always by the same medical assistant.
# The following parameters were evaluated:
# 1. Time until the onset of pain
# 2. Heart rate at the onset of pain
# 3. Blood pressure at the onset of pain
# 4. The workload performed, resulting from the sum of the products multiplied by the watts per minute (W×min).
# 5. The maximum workload, which results from the watts of the last complete exercise period (lasting 3 minutes) and the watts of the next unfinished period (watts)
# 6. The pressure frequency product as index for the oxygen consumption, which was calculated from the product of the heart rate and of the systolic blood pressure.
# Since some patients reported pain without depression of the ST segment, ST segment was not evaluated
# [3] = i.v., vagotomized rats, 30 minutes after administration, 3 dosages, 6 animals each
# [4] = at the moment of the highest comparable workload, 30 minutes after injection
# [5] = at the onset of pain, 30 minutes after injection
structure (smiles),measurement,setting,value
"C=CCN1CCc2nc(N)oc2CC1 [B, 2-Amino-6-allyl-4,5,7,8-tetrahydro-6H-oxoazolo[5,4-d]azepine dihydrochloride]",ED (50 beats/min),vagotomized rats; [3],0.1 mg/kg
"CCN1CCc2nc(N)sc2CC1.Cl.Cl [C, 2-Amino-6-ethyl-4,5,7,8-tetrahydro-6H-thiazolo[5,4-d]azepine dihydrochloride]",LD50 at 336 h,[1],> 1500 mg/kg
same,ED (50 beats/min),vagotomized rats; [3],0.032 mg/kg
"CCN1CCc2nc(N)oc2CC1.Cl.Cl [Compound A, 2-Amino-6-ethyl-4,5,7,8-tetrahydro-6H-oxazolo[5,4-d]azepine dihydrochloride]",LD50 at 336 h,[1],2210 mg/kg
same,increase of duration of exercise performance (time patients could be exercised longer) vs control,"[2]; 30 minutes after injection, control 6 minutes on the average",2 min
same,reduction of heart rate at the highest comparable workload,"[2]; at the highest comparable workload, 30 minutes after injection",12 beats/min
same,diastolic blood pressure at the highest comparable workload,[2]; [4],unchanged
same,reduction of systolic blood pressure at the highest comparable workload,[2]; [4],19 mm Hg
same,diastolic blood pressure at the onset of pain,[2]; [5],unchanged
same,increase of heart rate at the onset of pain,[2]; [5],2 beats/min
same,reduction of systolic blood pressure at the onset of pain,[2]; [5],8 mm Hg
same,difference of heart rate between placebo and compound A during the last complete minute before stopping,"[2]; last complete minute before stopping, direction not given",3 beats/min
same,reduction of systolic blood pressure over placebo during the last minute before stopping,[2]; last minute before stopping,9 mm Hg
same,product of pressure frequency during the last minute before stopping,"[2]; last minute before stopping, placebo 313",295
same,product of pressure frequency at the highest comparable strain,"[2]; moment of the highest comparable strain, placebo 310",258
same,maximum work (maximum workload),[2]; placebo 76 watts,87 watts
same,average work performed until workload was stopped,[2]; placebo 495 W×min,627 W×min
same,O2 consumption of the heart (concluded from rate/pressure product),[2]; summary in words,diminishes O2 consumption
same,effect on duration of exercise and exercise capacity,[2]; summary in words,increases the duration of exercise and exercise capacity
same,ED (50 beats/min),vagotomized rats,0.5 mg/kg
"CCCN1CCc2nc(N)sc2CC1.Cl.Cl [Compound D, 2-Amino-6-n-propyl-4,5,7,8-tetrahydro-6H-thiazolo[5,4-d]azepine dihydrochloride]",ED (50 beats/min),vagotomized rats; [3],0.012 mg/kg
"C=CCN1CCc2nc(N)sc2CC1.Cl.Cl [E, 2-Amino-6-allyl-4,5,7,8-tetrahydro-6H-thiazolo[5,4-d]azepine dihydrochloride]",LD50 at 336 h,[1],455 mg/kg
same,ED (50 beats/min),vagotomized rats; [3],0.042 mg/kg
"Cl.Cl.Nc1nc2c(s1)CCN(CCO)CC2 [F, 2-Amino-6-(2-hydroxy-ethyl)-4,5,7,8-tetrahydro-6H-thiazolo[5,4-d]azepine dihydrochloride]",LD50 at 336 h,[1],~1000 mg/kg
same,ED (50 beats/min),vagotomized rats; [3],0.037 mg/kg
"Nc1nc2c(s1)CCN(Cc1ccc(Cl)cc1)CC2 [G, 2-Amino-6-(4-chloro-benzyl)-4,5,7,8-tetrahydro-6H-thiazolo[5,4-d]azepine dihydrocloride]",LD50 at 336 h,[1],905 mg/kg
same,ED (50 beats/min),vagotomized rats; [3],1.4 mg/kg
